# pIC50: −log10 of the molar value.
# Molecular target: T1, DNA polymerase theta (POLQ) (2-894)
# T1 construct: 2-894
# Test: ATPase Assay
# Method: POLθ-mediated ATP hydrolysis was measured using the ADP-Glo Kinase Assay (Promega Corporation, Madison, WI). Reactions were performed in white 384-well small-volume microplates (Greiner Bio-One, Frickenhausen, Germany) using a total volume of 15 μL. The ATPase reaction consisted of 1 nM biotinylated Avi-POLθ[2-894], 5 nM of a 50 nucleotide poly-thymine repeat single-stranded DNA (PolyT(50) ssDNA), and 100 μM ATP in 5 μL of assay buffer (50 mM Tris, pH 7.5, 80 mM KCl, 10 MgCl2, 1 mM DTT, 5% glycerol, 0.01% BSA, 0.01% Tween-20). Inhibition of POLΘATPase activity was determined by preparing 11-point serial dilutions of the test compounds in 100% DMSO, then transferring 30 nL of the compounds into the ATPase reaction using an Echo acoustic liquid handler (Beckman Coulter, Brea, CA). DMSO-treated wells containing either all of the reaction components (1 nM biotinylated Avi-POLθ[2-894], 5 nM PolyT(50) ssDNA, 100 μM ATP) or with assay buffer substituted for the biotinylated Avi-POLθ[2-894](0 nM biotinylated Avi-POLθ[2-894], 5 nM PolyT(50) ssDNA, 100 μM ATP) were used to define the maximum and minimum response in the assay. Following a one-hour incubation at ambient temperature, 5 μL of ADP-Glo Reagent was added to the ATPase reaction, and this mixture was allowed to incubate at ambient temperature for an additional hour. Lastly, 5 μL of Kinase Detection Reagent was added, followed by a third one-hour incubation at ambient temperature. The reagent concentrations listed represent the amounts only in the 5 μL ATPase reaction volume.
row,SMILES,pIC50
1,"COc1ccc(C(=O)N2Cc3nc(NC(=O)c4cnc(C)cc4-c4cc(C#N)ccc4OC)sc3C2)c(Cl)c1 [US20250230171, Compound 516]",8.10
2,"COc1cnc(Cl)cc1-c1cc(C)ncc1C(=O)Nc1nc2c(s1)CN(C(=O)c1nc(C)ncc1OC)C2 [US20250230171, Compound 493]",8.10
3,"COc1cnc(Cl)cc1-c1cc(C)ncc1C(=O)Nc1nc2c(s1)CN(C(=O)C1CCCC(OC(F)(F)F)C1)C2 (racemic) [US20250230171, Compound 485]",8.10
4,"COc1ccc(C#N)cc1-c1cc(C)ncc1C(=O)Nc1nc2c(s1)CN(C(=O)c1ccc(OC(F)F)cc1)C2 [US20250230171, Compound 503]",8.10
5,"COc1cnc(Cl)cc1-c1cc(C)ncc1C(=O)Nc1nc2c(s1)CN(C(=O)c1nccnc1OC)C2 [US20250230171, Compound 437]",8.10
6,"COc1cnc(Cl)cc1-c1cc(C)ncc1C(=O)Nc1nc2c(s1)CN(C(=O)c1ccc(C(F)F)c(F)c1)C2 [US20250230171, Compound 403]",8.10
7,"COc1cnc(Cl)cc1-c1cc(C)ncc1C(=O)Nc1nc2c(s1)CN(C(=O)c1cccc3nccn13)C2 [US20250230171, Compound 455]",8.10
8,"COc1ccc(C(=O)N2Cc3nc(NC(=O)c4cnc(C)cc4-c4cc(Cl)ncc4OC)sc3C2)nn1 [US20250230171, Compound 545]",7.49
9,"COc1cnc(Cl)cc1-c1cc(C)ncc1C(=O)Nc1nc2c(s1)CN(C(=O)C1CC3(CC(OC(F)F)C3)C1)C2 (stereo unspecified) [US20250230171, Compound 456]",8.10
10,"COc1cnc(Cl)cc1-c1cc(C)ncc1C(=O)Nc1nc2c(s1)CN(C(=O)c1cnc(C(F)F)c(Cl)c1)C2 [US20250230171, Compound 445]",8.10
11,"COc1cnc(Cl)cc1-c1cc(C)ncc1C(=O)Nc1nc2c(s1)CN(C(=O)c1ccc(C(F)F)cc1F)C2 [US20250230171, Compound 382]",8.10
12,"COc1cnc(Cl)cc1-c1cc(C)ncc1C(=O)Nc1nc2c(s1)CN(C(=O)c1c(C)ncn1C)C2 [US20250230171, Compound 476]",8.10
13,"COc1cnc(Cl)cc1-c1cc(C)ncc1C(=O)Nc1nc2c(s1)CN(C(=O)c1ncc(C(F)F)cc1OC)C2 [US20250230171, Compound 412]",8.10
14,"COc1cnc(Cl)cc1-c1cc(C)ncc1C(=O)Nc1nc2c(s1)CN(C(=O)c1nn(C)cc1N)C2 [US20250230171, Compound 458]",8.10
15,"COc1cnc(Cl)cc1-c1cc(C)ncc1C(=O)Nc1nc2c(s1)CN(C(=O)c1cc(C)nc(C(F)F)n1)C2 [US20250230171, Compound 530]",8.10
16,"COc1cnc(Cl)cc1-c1cc(C)ncc1C(=O)Nc1nc2c(s1)CN(C(=O)c1ccc(F)c(Cl)n1)C2 [US20250230171, Compound 411]",8.10
